{
  "source": "patent US12246010B2",
  "about": "“Formulations of tegavivint and related compounds” (Iterion Therapeutics, Inc., priority 2018, dated 2025)",
  "key": {"[1]": {"assay": "Aerosol concentration of nebulized formulations in rodent nose-only exposure chamber", "assay_type": "physicochemical", "text": "A series of BC-2059 (tegavivint) formulations were aerosolized using vibrating mesh and compressed air nebulizers to determine the most efficient method of aerosol generation. The aerosols were characterized for aerosol concentration and particle size distribution in a rodent nose-only exposure chamber. Each formulation had different variables adjusted to assess impact on aerosol performance. These included particle size reduction of the API, excipient profile and nebulizer utilized.\nTest article BC-2059 was suspended in 0.1% Tween 80 in purified water at a concentration of 15 mg/mL. The suspension was sonicated using a Covaris S220x Ultrasonicator (Covaris, Boston MA) and then mixed on a vortex for one minute. Sonication and mixing by vortex was repeated a total of 15 times.\nThe remaining bulk BC-2059 powder was ground in a Planetary Ball Mill (Retsch, Germany) for 10 minutes at 150 RPMs utilizing a 12 mL ball mill jar and three metal balls. The milled BC-2059 powder was suspended in 0.1% Tween 80 in purified water at a concentration of 15 mg/mL. The suspension was sonicated using the procedure outlined above.\nThe remaining bulk BC-2059 powder was ground in a Planetary Ball Mill (Retsch, Germany) for 60 minutes at 300 RPMs utilizing a 12 mL ball mill jar and three metal balls. The milled BC-2059 powder was suspended in 0.1% Tween 80 in purified water and 10% PEG 400 in purified water at a concentration of 15 mg/mL. The suspensions were sonicated using the procedure outlined above. An additional 15 mg/mL BC-2059 suspension using 10% ethanol in purified water was prepared. The suspension was sonicated for 10 minutes using a VWR sonicator (VWR, Radnor PA) and mixed for 4 minutes using a vortex mixer. […]\nThe aerosols were generated from formulations prepared with a series of surfactants with 4 separate nebulizers (Aeroneb Solo (Aerogen, Ireland), Pari LC Plus (Pari Respiratory Equipment Inc. Midlothian VA), Hospitak Up Mist, Hospitak Inc. Farmdale, NY), and Hudson Micro-Mist (Teleflex Inc. Research Triangle Park, NC) and transitioned into a 2 tier flow-past rodent exposure system.\nThe total concentration of aerosol in the exposure atmosphere was determined by the analysis of filter samples (GF/A 47-mm filters). Filter samples were collected at a nominal flow rate of 0.3 L/min. Filter samples collected throughout the study were analyzed gravimetrically to determine the total aerosol concentration, and submitted for HPLC analysis.\nFilters with test article were extracted in 1:1 acetonitrile: methanol and analyzed by the HPLC-UV assay."}, "[2]": {"tested_on": "bleomycin-induced idiopathic pulmonary fibrosis (IPF)", "assay": "Bleomycin-induced IPF mouse model: lung mechanics (FlexiVent compliance)", "assay_type": "in vivo, C57BL/6 male mice", "protocol": "(§1) The purpose of this experiment was to investigate tegavivint nanosuspension in a mouse model of bleomycin-induced idiopathic pulmonary fibrosis (IPF). Test articles were as follows:\n(§2) Murine model of pulmonary fibrosis was induced by intratracheally (IT) injected bleomycin (APP Pharmaceuticals, Schaumburg, IL). One dose of 0.025 U bleomycin dissolved in 50 microliters of Saline 0.9%, or PBS as control was administered to each animal on day 0.\nTegavivint nanosuspension was applied to Group 3 in the form of aerosols, through the method of whole body exposure. The mice were placed inside a plastic box. This box was sealed and connected by one of its sides to the outlet of the nebulizer device, and on the other side to a system of closed water. The whole procedure was carried out inside the fume hood of the animal room. In each treatment session, 5 ml of 25 mg/ml Tegavivint (125 mg) was nebulized over 15 min to each group of 4-5 mice in the chamber. To increase exposure of the mice to the aerosol, Tegavivint that precipitated in the aerosol chamber was collected with a syringe and re-nebulized a second and a third time. Mice were nebulized twice a day between day 5 and day 21 after administration of bleomycin. Group 1 and 2 received nebulized vehicle 5 ml in the same manner. […]"}, "[3]": {"assay": "Aerosol particle size distribution by cascade impactor", "assay_type": "physicochemical", "settings": "Covaris and Ball Mill (60 min); 0.1% Tween 80; 15.06 mg/mL; Hospitak", "protocol": "Particle size distribution (PSD) of the test article was measured at the breathing zone using an In Tox, mercer style cascade impactor.\nParticle size for test atmospheres was measured using an In-Tox Cascade impactor for suspensions prepared with 0.1% Tween 80 in ultrapure water, and the sponsor provided poloxamer suspension using a compressed air nebulizer."}, "[4]": {"tested_on": "bleomycin-induced idiopathic pulmonary fibrosis (IPF)", "assay": "Bleomycin-induced IPF mouse model: body weight", "assay_type": "in vivo, C57BL/6 male mice", "protocol": "as §1\nTegavivint (BC2059) in a nano-milled suspension 25 mg/mL in 0.625% poloxamer 188 and 10% sorbitol. The test article was refrigerated at about 4° C.\nNebulizing equipment was Altera ultrasonic eRapid machine nebulizer (model #678G1002).\nAnimals were 8-12 week old C57BL/6 male mice (Jackson Lab, Bar Harbor, ME).\nas §2\n(§3) Tegavivint nanosuspension was applied to Group 3 in the form of aerosols, through the method of whole body exposure. The mice were placed inside a plastic box. This box was sealed and connected by one of its sides to the outlet of the nebulizer device, and on the other side to a system of closed water. The whole procedure was carried out inside the fume hood of the animal room. In each treatment session, 5 ml of 25 mg/ml Tegavivint (125 mg) was nebulized over 15 min to each group of 4-5 mice in the chamber. […]\nThe body weight of animals was recorded on Days 0, 5, 8, 12, 16, 19, and 21."}, "[5]": {"tested_on": "bleomycin-induced idiopathic pulmonary fibrosis (IPF)", "assay": "Bleomycin-induced IPF mouse model: total lung collagen content (Hydroxyproline Assay)", "assay_type": "in vivo, C57BL/6 male mice", "protocol": "as §1, §2, §3\nOn Day 21 all animals were sacrificed and lungs were harvested. Total lung collagen content was evaluated using the Hydroxyproline Assay as previously described (Morales-Nebreda L, et al. AJRCMB 2015). […] The resulting pellet was resuspended in 1 ml of 0.5 M NaOH and Sirius red staining was quantified spectrophotometrically (540 nm) using a colorimetric plate reader (Bio-Rad, Hercules, CA)."}, "[6]": {"settings": "Covaris and Ball Mill (60 min), 0.1% Tween 80, 15.06 mg/mL, Hospitak"}, "[7]": {"settings": "Covaris and Ball Mill (60 min), 0.1% Tween 80, 15.08 mg/mL, Hudson MicroMist"}, "[8]": {"settings": "Covaris and Ball Mill (60 min), 10% PEG-400, 15.08 mg/mL, Hudson MicroMist"}, "[9]": {"settings": "Covaris, 0.1% Tween 80, 15.04 mg/mL, Aeroneb Solo"}, "[10]": {"settings": "Sonicator and Ball Mill (60 min), 10% Ethanol, 15.00 mg/mL, Hudson MicroMist"}, "[11]": {"settings": "Group 3: IT bleomycin Day 0, 5 ml of 25 mg/ml tegavivint aerosol BID Day 5-21, Day 21, individual animals"}},
  "note": "Several values for one entry are separate records, joined by “and”; a condition that tells them apart may be missing. Equal entries are not always repeated.",
  "data": [
    {"smiles": "C[C@@H]1C[C@H](C)CN(S(=O)(=O)c2ccc3c(c2)C(=NO)c2cc(S(=O)(=O)N4C[C@H](C)C[C@H](C)C4)ccc2C3=NO)C1", "note": "[BC2059, tegavivint]", "values": [
      {"measurement": "Total Aerosol Conc.", "setting": "[1]; Covaris and Ball Mill (10 min), 0.1% Tween 80, 15.58 mg/mL, Pari LC Plus", "value": 0.123, "unit": "mg/L"},
      {"measurement": "BC-2059 Aerosol Conc.", "setting": "[1]; [6]", "value": 66, "unit": "µg/L"},
      {"measurement": "Total Aerosol Conc.", "setting": "[1]; [6]", "value": 0.229, "unit": "mg/L"},
      {"measurement": "BC-2059 Aerosol Conc.", "setting": "[1]; [7]", "value": 86, "unit": "µg/L"},
      {"measurement": "Total Aerosol Conc.", "setting": "[1]; [7]", "value": 0.093, "unit": "mg/L"},
      {"measurement": "BC-2059 Aerosol Conc.", "setting": "[1]; [8]", "value": 7.2, "unit": "µg/L"},
      {"measurement": "Total Aerosol Conc.", "setting": "[1]; [8]", "value": 2.58, "unit": "mg/L"},
      {"measurement": "BC-2059 Aerosol Conc.", "setting": "[1]; [9]", "value": 1.3, "unit": "µg/L"},
      {"measurement": "Total Aerosol Conc.", "setting": "[1]; [9]", "value": 0.247, "unit": "mg/L"},
      {"measurement": "BC-2059 Aerosol Conc.", "setting": "[1]; [10]", "value": 20.2, "unit": "µg/L"},
      {"measurement": "Total Aerosol Conc.", "setting": "[1]; [10]", "value": 0.027, "unit": "mg/L"},
      {"measurement": "effect on lung compliance after bleomycin injury", "setting": "[2]; Group 3, inhaled", "value": "reversed the compliance values to near those of the sham-treated controls"},
      {"measurement": "Compliance", "setting": "[2]; [11]", "value": "0.05515 ml/cm H2O and 0.05604 ml/cm H2O and 0.06762 ml/cm H2O and 0.0543 ml/cm H2O and 0.0561 ml/cm H2O"},
      {"measurement": "GSD", "setting": "[3]", "value": 2.21},
      {"measurement": "MMAD", "setting": "[3]", "value": 1.26, "unit": "µm"},
      {"measurement": "effect on body weight loss caused by bleomycin", "setting": "[4]; Group 3, inhaled", "value": "reversed the body weight loss"},
      {"measurement": "Change in body weight (%)", "setting": "[4]; Group 3: IT bleomycin Day 0, 5 ml of 25 mg/ml tegavivint aerosol BID Day 5-21, individual animals", "value": "−2.83% and 5.2% and 7.3% (2×) and 7.9%"},
      {"measurement": "effect on total lung collagen content after bleomycin injury", "setting": "[5]; Group 3, inhaled", "value": "reversed this change"},
      {"measurement": "Hydroxyproline", "setting": "[5]; [11]", "value": "70.016 μg/half lung and 39.44 μg/half lung and 45.68 μg/half lung and 58.784 μg/half lung and 64.296 μg/half lung"}
    ]}
  ]
}
